d = 2'-deoxy (DNA); r = 2'-OH (RNA)
Columns and labels:
[1] = system: HLE, SNU-387 SNU-449, and Huh7; test: mRNA expression in hepatocellular cancer cells after CHIR99021 by real-time PCR; type: cell-based, human; details: SNU-387, SNU-449, Huh7, CHIR99021 final concentration 5 μM
[2] = system: MCF7; test: mRNA expression in MCF7 cells by real-time PCR; type: cell-based, human
[3] = system: mouse fetal liver cells (BMEL); test: mRNA expression in BMEL cells by real-time PCR; type: cell-based; details: CHIR99021 final concentration 5 μM
[4] = system: Huh6 cells; test: mRNA expression in Huh6 cells by real-time PCR; type: cell-based, human; details: as in mRNA expression of Axin2
Protocol: Next, the mechanism for regulating expression of GREB1 in hepatoblastoma by YAP and c-Met was investigated. […] However, in Huh6 cells and HepG2 cells, knockdown of YAP/TAZ had no effect on expression of GREB1 (see b of FIG. 13). Further, when Huh6 cells was treated with CHIR99021, or treated with XMU-MP1, which has an inhibitory effect on Mst1/2 kinase and is an activator of YAP, or treated with CHIR99021 and XMU-MP1 in combination, mRNA expression of GREB1 was suppressed as in mRNA expression of Axin2 (see c of FIG. 13).

[5] = system: HepG2 cells; test: mRNA (real-time PCR) and protein (lysate probing) expression in HepG2 cells; type: cell-based, human
Protocol: (§1) Using RNAiMAX (Life Technologies/Thermo Fisher Scientific), HepG2 cells, Huh6 cells, Hep3B cells, JHH7 cells, and SKMEL28 cells were each transfected with each siRNA (10 nm). In experiments, the cells were used from 48 to 120 hours after transfection.

[6] = system: HepG2 cells; test: Cell viability by propidium iodide and Hoechst33342 staining; type: cell-based, human; details: medium without Z-VAD, 0.1% FBS, 2 days; PI and Hoechst33342
Protocol: Further, HepG2 cells were transfected with control siRNA or siRNAs (GREB1 #1 siRNA and GREB1 #2 siRNA), cultured in media (caspase inhibitor Z-VAD was contained in one condition, and not contained in the other condition) containing 0.1% FBS for 2 days, stained with propidium iodide (PI, […]) and Hoechst33342 (nucleus), and the cell viability was evaluated.
Further, HepG2 cells transfected with control siRNA, GREB1 siRNA (GREB1 #2 siRNA), p15 siRNA, or siRNA of GREB1 (GREB1 #2 siRNA) and siRNA of p15 in combination were cultured in media (caspase inhibitor Z-VAD was contained in one condition, and not contained in the other condition) containing 0.1% FBS for 2 days, stained with propidium iodide (PI) and Hoechst33342, and the cell viability was calculated.

[7] = system: HepG2 cells; test: Cell proliferation assay, two-dimensional culture (plastic dish), Cyquant; type: cell-based, human
Protocol: Cells were seeded on a plate at 1.0×10^4 cells/mL, and, after 12 hours, the medium was replaced with a medium containing 10% serum. While the cell number was counted every 48 hours, the cells were cultured up to 10 days. The measurement of the cell number was performed using Cyquant NF assays (Life Technologies/Thermo Fisher Scientific) according to protocols recommended by the manufacturer.
Mock HepG2 cells (having a vector only, containing no GREB1) or GREB1-transduced HepG2 cells were transfected with control siRNA or two different types of siRNA (GREB1 #1 siRNA and GREB1 #2 siRNA), then two-dimensional culture (plastic dish culture) was performed, and a relative cell number was calculated by Cyquant assay overtime. As a result, in GREB1 knockdown, proliferative capacity of HepG2 cells in two-dimensional culture was reduced. However, when GREB1-transduced HepG2 cells were transfected with siRNAs against GREB1 (GREB1 #1 siRNA/GREB1 and GREB1 #2 siRNA/GREB1), the proliferative capacity of HepG2 cells was not affected (see a of FIG. 4).

[8] = system: GREB1; test: GREB1 expression in HepG2 cells after GREB1 siRNA or GREB1 ASO (cell lysates probed with anti-GREB1 antibody); type: cell-based, human; details: siRNA 10 nm, lysate probing
Protocol: Phosphorothioated I5-mer antisense oligonucleotides (ASOs) containing AmNA monomers were prepared (synthesized by GeneDesign (Ibaraki, Japan)). In the present specification, “hGREB1-6424-AmNA (15)” is sometimes simply referred to as “ASO-6424” or “GREB1 ASO-6424”. Similar abbreviations are used for describing other ASOs. Using RNAiMAX (Invitrogen, Carlsbad, Calif., USA), HepG2 or COLO679 cells were transfected with 10 nM of ASOs. In experiments, the cells were used from 36 to 48 hours after transfection.
as §1
As reported previously, knockdown of β-catenin decreased HepG2 cell proliferation (see a of FIG. 3). […] Thus, to elucidate the role of GREB1 in HepG2 cells, knockdown of GREB1 was carried out using two different siRNAs.
Next, HepG2 cells were transfected with control ASO or each of the above-described GREB1 ASOs, cultured in a medium containing 10% FBS for 2 days, and the cell lysates were probed with anti-GREB1 antibody and anti-HSP90 antibody.

[9] = system: liver tumors of BYM mice; test: Tumorigenesis by HTVi (hydrodynamic tail vein injection), BYM mice with GREB1 shRNA; type: in vivo
Protocol: In the presence of Greb1 shRNA #3 (SEQ ID NO: 8) (20 μg) or control, and pLIVE-SB13 (8 μg), pT2BH-YAPS127A (20 μg), pT2BH-ΔN90 β-catenin-mutLuc3 (20 μg), pT3-EF1a-cMET (20 μg), and GFP2ALuc were diluted in 2.5 ml of physiological saline, and injected into tail veins of 8- to 9-week old male wild-type C57BL6/N mice within 5 to 7 seconds. Livers of the mice were collected at a predetermined time after injection (or at occurrence of the tumor), and various parameters associated with tumorigenesis were assessed. Specifically, this assessment was performed according to techniques described in Tao, J. et al., (2014). Gastroenterology 147, 690-701 and Tward, A. D. et al, (2007). Proc Natl Acad Sci USA 104, 14771-14776. In this evaluation, ΔN90 β-catenin refers to a β-catenin mutant in which amino acids at positions 1 to 90 of human ft-catenin were deleted, and YAPS127A refers to a YAP mutant in which serine at positon 127 of YAP was substituted by alanine.
Further, ΔN90 β-catenin, YapS127A, and c-Met were administered to mice together with GREB1 shRNA, and the livers were collected 7 to 8 weeks after administration. As a result, in mice transduced with ΔN90 β-catenin, YAPS127A, and c-Met (BYM mice, control), a plurality of nodules were observed on the entire surfaces of the livers (see a of FIG. 14). On the other hand, in mice transduced with GREB1 shRNA together with ΔN90 β-catenin, YAPS127A, and c-Met (BYM GREB1 KD mice), the nodules in the liver were suppressed (see a of FIG. 14).

[10] = CHIR99021 in the presence or absence of ICI-182,786
[11] = BYM+ GREB1 shRNA mouse vs BYM mouse without knockdown
[12] = tumor nodules of BYM GREB1 KD mice K2 and K4, real-time PCR

## Cc1c[nH]c(-c2cnc(NCCNc3ccc(C#N)cn3)nc2-c2ccc(Cl)cc2Cl)n1 [CHIR99021]
[1]
  expression of Axin2: increased
  expression of GREB1: not increased
[2]; [10]
  expression of Axin2: increased
  expression of GREB1: not increased
[3]
  expression of GREB1: increased
[4]
  mRNA expression of GREB1: suppressed

## CN1C(=O)c2sccc2N(C)c2nc(Nc3ccc(S(N)(=O)=O)cc3)ncc21 [XMU-MP1]
[4]
  mRNA expression of GREB1: suppressed

## C[C@]12CC[C@@H]3c4ccc(O)cc4C[C@@H](CCCCCCCCC[S+]([O-])CCCC(F)(F)C(F)(F)F)[C@H]3[C@@H]1CC[C@@H]2O (stereo partly drawn) [ICI-182,786]
[2]; ICI-182,786 treatment, real-time PCR
  expression of GREB1: dramatically decreased
[2]; estrogen receptor antagonist treatment
  mRNA expression of PAI-1: suppresses
[5]; HepG2 cells treated for 48 hours, real-time PCR
  expression level of GREB1 mRNA: not affected

## GREB1 #1 siRNA: siRNA against human GREB1; sense 5′-GCCAUUCGUGUGCUUCCAUTT-3′ (SEQ ID NO: 4), antisense SEQ ID NO: 5 (antisense AUGGAAGCACACGAAUGGCTT; sugars from the 5' end r19 d2, backbone not given here)
[6]
  cell death of HepG2 cells: elevated cell death
[7]; GREB1-transduced HepG2 cells
  proliferative capacity of HepG2 cells in two-dimensional culture: not affected
[7]; mock HepG2 cells, relative cell number by Cyquant over time
  proliferative capacity of HepG2 cells in two-dimensional culture: reduced
[5]; HepG2 cells, 0.1% FBS for 2 days, lysate probing
  amounts of cleaved caspase 3 and PARP1: increased
[5]; HepG2 cells, GREB1 knockdown, lysate probing
  expressions of β-catenin and Axin2: no effect
[5]; HepG2 cells, medium containing 1% FBS for 1 day, lysate probing
  expression of cell cycle regulators cyclinA, cyclinB, phosphorylated histone H3: decreases
[8]
  knockdown of GREB1 (anti-GREB1 antibody): knocked down

## GREB1 shRNA: shRNA against mouse Greb1, encoding DNA SEQ ID NO: 8, given as pT2BH-GFP2ALuc plasmid by hydrodynamic injection (DNA CCGGCTACTTTGTTAGCAATGATATCTCGAGATATCATTGCTAACAAAGTAGTTTTTTG)
[9]; BYM GREB1 KD mice K1 to K6
  incidence rate of tumorigenesis: decreased
  mice in which any tumor was not observed: 4 out of the 6
[9]; BYM mice, livers collected 7 to 8 weeks after administration, shRNA plasmid 20 μg HTVi
  nodules in the liver: suppressed
[9]; [11]
  serum AFP level: dramatically decreased
  weight of the liver: dramatically decreased
[9]; [12]
  GREB1 mRNA expression levels in tumors: low
  expression levels of DLK1 and TACSTD1 in tumors: the same as those of the GREB1 low group of BYM mice

Reference: patent US20220249538A1, “TREATMENT AGENT FOR SEX HORMONE-INSENSITIVE GREB1-POSITIVE TUMORS” (OSAKA UNIVERSITY, priority 2019, published 2022)
